SMILES strings stand for the structures. Several values for one entry are separate records, joined by “and”; a condition that tells them apart may be missing. Identical values can stand only once.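 1) Cells in 96-well plates. 2) Compound, 48 h, 5 concentrations. 3) Linear interpolation between surrounding doses. 4) Unreached endpoint = highest concentration. Abbreviation: GI50, concentration required for 50% inhibition of growth. TGI: concentration producing complete growth inhibition.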

From PubChem BioAssay (NCI) come the findings set out here.

What all share (assay): growth of human tumour cells (NCI), 48 h
The test system of test [1] is SN12C renal.
In test [2] the test system is HT29 colon.
In test [3] the test system is IGROV1 ovarian.
Test [4] relates to 786-0 renal.
Test [5] has as its system HCT-116 colon.
The subject of test [6] is BT-549 breast.
The test system of test [7] is MDA-MB-435.
Test [8] relates to M19-MEL melanoma.
In test [9] the test system is KM20L2 colon.
Test [10] deals with XF 498 CNS.

As to `C[C@H]1CCC/C=C/[C@@H]2C[C@H](O)C[C@H]2[C@H](O)C(O)C(O)C(=O)O1` (some centres undefined), the GI50 in test [1] is 2.66 µM; in [2] it was 1.24 µM; in test [3] it was 2.96 µM; in test [4], 0.788 µM; in [5], 3380 nM; in [6], 2720 nM. Besides, the GI50 in [7] is 3.74 µM. Moreover, the TGI in test [1] was 7.63 µM; in [2] it was 17.9 µM; in test [3], 11.7 µM; in test [4], over 100 µM; in test [5] it was 19 µM; in [6], over 100 µM. The compound further returned a TGI in test [7] of over 100 µM.
`CCOC(=O)c1c(C)n(Cc2ccc(Cl)cc2Cl)c2c1cc(O)c1[nH]c(Cc3ccccc3)nc12`: the GI50 is 4 µM in test [1]; 3.89 µM in test [2]; 3.22 µM in test [3]; 3.67 µM in test [4]; 2180 nM in [5]; 2770 nM in test [6]. In test [7], the GI50 was 5.86 µM. Also, the TGI is 12.1 µM in test [1]; 17.3 µM in test [2]; 15.8 µM in [3]; 13.7 µM in test [4]; 4.76 µM in test [5]; 7.02 µM in test [6]. In test [7], this compound came in with a TGI of 24.7 µM.
In the case of `COc1ccc(-c2cc(-c3ccco3)c(C#N)c(=O)n2C2OC(COC(C)=O)C(OC(C)=O)C(OC(C)=O)C2OC(C)=O)cc1` (centres undefined), the GI50 in test [1] is > 100 µM and 18.9 µM; in [2], > 100 µM and 28.6 µM; in [3], > 100 µM and 12.9 µM; in test [4], > 100 µM and 29.3 µM. For the same compound, the TGI was > 100 µM and 55.2 µM in [1]; over 100 µM in test [2]; > 100 µM and 94.4 µM in test [3]; over 100 µM in test [4]; over 100 µM in [8]; > 100 µM and 21.1 µM in test [5]. In [9], this compound yielded a TGI of over 100 µM.
On to `CC(=O)OC1C(C)OC(Oc2c(-c3ccc(O)cc3)oc3cc(O)cc(O)c3c2=O)C(O)C1OC(C)=O` (centres undefined), for which the GI50 is 27.3 µM in [1]; 31.4 µM in [2]; 31.7 µM in [3]; 48.2 µM in test [4]; 35100 nM in test [5]; 19900 nM in [6]. In addition, the GI50 in test [7] is 27.2 µM. The TGI in test [1] was 97.5 µM; in [2], over 91.3 µM; in test [3], over 79.8 µM; in test [4] it was over 100 µM; in test [5], over 100 µM; in test [6], 54.8 µM. The TGI in test [7] is over 75.4 µM.
In the case of `NC(=O)c1c(NC(=O)c2ccc(C(F)(F)F)cc2Cl)sc2c1CCC(=O)C2`, the GI50 in [1] was 0.36 µM; in test [2] it was 0.346 µM; in [3], 0.498 µM; in test [4], 0.475 µM; in [5], 302 nM; in test [6] it was 294 nM. Moreover, the GI50 in [7] is 0.393 µM. Besides, the TGI in [1] turned out to be 2.04 µM; in test [2], 1.67 µM; in [3], 2.37 µM; in test [4], 15.6 µM; in test [5] it was 1.42 µM; in test [6], 1.91 µM. The compound further registered a TGI in test [7] of 1.79 µM.
As to `Nc1ncnc2c1ncn2C1(CO)OC(CO)C(O)C1O` (centres undefined), the TGI in test [1], in [2], in [4], in [10], in [5] and in test [9] was over 100 µM throughout.
`O=C(N/N=C/c1coc2ccc(Cl)cc2c1=O)c1cc(O)c(O)c(O)c1`: the GI50 was 24.1 µM in test [1]; 63.8 µM in test [2]; 44.5 µM in [3]; 23.4 µM in test [4]; 19300 nM in [5]; 23300 nM in test [6]. Further, the GI50 in test [7] was 27.2 µM. Moreover, the TGI was 65.4 µM in [1]; over 100 µM in test [2]; over 100 µM in test [3]; 66 µM in test [4]; 70 µM in [5]; 96.6 µM in test [6]. In addition, the TGI in test [7] amounted to 66.7 µM.
With `COc1cccc(/C=C2\COc3ccc(O)c(O)c3C2=O)c1OC`, the GI50 in [1] is 2.77 µM; in test [2] it was 3.33 µM; in test [3] it was 2.62 µM; in test [4], 1.89 µM; in test [5] it was 1900 nM; in test [6], 1890 nM. The GI50 in [7] is 2.3 µM. Besides, the TGI in test [1] was 12.9 µM; in test [2] it was 10.1 µM; in test [3] it was 10.9 µM; in [4], 5.62 µM; in test [5], 4.89 µM; in [6] it was 8.7 µM. In [7], this compound gave a TGI of 7 µM.
Take `CN1C=C(C(N)=O)Cc2ccsc21`: the TGI in test [1], in test [2], in [3], in test [4], in [8] and in test [5] was over 100 µM throughout. Moreover, the TGI in test [9] is over 100 µM.
As for `O=C1C=C(c2ccccc2)NC1(c1ccccc1)c1cc(-c2ccccc2)[nH]c1-c1ccccc1` (centres undefined), the TGI in test [1], in test [2], in test [3], in [4], in test [8] and in test [5] was over 100 µM throughout. This compound also gave a TGI in test [9] of over 100 µM.
As for `Nc1ncnc2occ(-c3ccc(NC(=O)Nc4cccc(C(F)(F)F)c4)cc3)c12`, the GI50 in [1] was 2.01 µM; in test [2], 3.12 µM; in test [3], 2.02 µM; in [4] it was 4.46 µM; in test [5] it was 2980 nM; in [6] it was 4320 nM. The GI50 in test [7] was 2.22 µM. Also, the TGI in [1] was 18 µM; in [2], 10.6 µM; in [3], 10.2 µM; in test [4] it was 10 µM; in [5], 16 µM; in test [6], 10.5 µM. This compound displayed a TGI in [7] of 6.48 µM.
